In patent US12370192B2, “Azole-fused pyridazin-3(2H)-one derivatives” (TAKEDA PHARMACEUTICAL COMPANY LIMITED, priority 2019, dated 2025):

Experiments:
[1] = molecular target: T1, human GPR139 receptor (Homo sapiens, UniProt Q6DWJ6); assay: GPR139 Competition Binding (membrane-based, tritium-labeled ligand); settings: T-REx-CHO membranes with human GPR139; 6.5 nM tritium-labeled ligand; 11-point curve, 30 μM maximum concentration; read-out: GPR139 Binding Affinity (pKi) (converted)
T1 construct: expressed in transfected cells; host or cells: T-REx-CHO (Thermo Fisher Scientific), doxycycline-induced
T1 sequence (Q6DWJ6 1-353): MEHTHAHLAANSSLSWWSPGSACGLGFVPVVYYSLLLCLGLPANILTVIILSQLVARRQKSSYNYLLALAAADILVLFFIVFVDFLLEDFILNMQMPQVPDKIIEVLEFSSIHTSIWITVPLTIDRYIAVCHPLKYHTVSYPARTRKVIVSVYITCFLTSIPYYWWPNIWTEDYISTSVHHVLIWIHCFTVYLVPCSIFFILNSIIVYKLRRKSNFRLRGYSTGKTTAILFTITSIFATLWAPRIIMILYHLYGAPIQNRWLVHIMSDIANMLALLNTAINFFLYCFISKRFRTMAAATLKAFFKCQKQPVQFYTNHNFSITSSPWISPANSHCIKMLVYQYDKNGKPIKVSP
Method: OPR139 Competition Binding
This membrane-based assay measures the ability of compounds to competitively bind GPR139 in stably transfected TREx™-CHO membranes. To prepare the membranes, T-REx™-CHO (Thermo Fisher Scientific®) cells are stably expressed with human GPR139 receptor, whose expression is controlled by a tetracycline-inducible element. The cells are cultured in medium containing F-12K nutrient mixture-Kaighn's modification, 10% tetracycline-free FBS, Blasticidin S HCl (10 μg/mL) and Hygromycin B (200 μg/mL). GPR139 receptor expression is induced for 18 hours with 2 μg/mL doxycycline (Sigma D9891) in growth media. After addition of doxycycline, cells are harvested in PBS and pelleted by centrifugation for 5 minutes at 200×G. Liquid is aspirated off and cells are resuspended in ice cold lysis buffer (20 mM HEPES/5 mM EDTA pH 7.4/1× Roche® protease inhibitor). Samples are vortexed until homogenous and then placed on ice and homogenized using a Dounce homogenizer at 50% power (3 cycles, 10 strokes per cycle). Lysate is centrifuged at 4° C. for 10 minutes in a tabletop Sorvall® centrifuge at 2000×G. The supernatant is recovered and centrifuged in a Sorvall® ultracentrifuge at 35,000 rpm for 30 minutes at 4° C. The supernatant is discarded, and the remaining pellet resuspended in lysis buffer (20 mM HEPES/0.1 mM EGTA/Roche® protease inhibitor). Membrane protein concentration is determined using Thermo Fisher® BCA quantification kit and is aliquoted into microtubes. Tubes are snap frozen in liquid nitrogen and stored at −80° C. Prior to use, the membranes are removed from cold storage, thawed to room temperature, vortexed until homogenous and diluted in assay buffer (20 mM HEPES pH 7.3, 5 mM MgCl2, 1 mM CaCl2), 1× Thermo Scientific® Halt™ protease inhibitor (78429)).
The assay is run in 96-well, polypropylene, v-bottom plates (Greiner Bio-One® 651201). Test compound in DMSO is added to the wells of each plate (11-point dose response curve, 30 μM maximum concentration, 3-fold serial dilution). A fixed amount of tritium-labeled ligand, (S)-2-(2,3-dimethyl-7-oxothieno[2,3-d]pyridazin-6(7H)-yl)-N-(1-(4-methoxyphenyl-2-t)propan-2-yl)acetamide (Quotient Bioresearch) in assay buffer (6.5 nM assay concentration) is added to each well of the assay plate, which is then agitated on a plate shaker for 30 seconds. Next, a fixed amount of membranes in assay buffer (2 μg membranes) is added to each well of the assay plate, which is then spun for 30 seconds at 300 rpm in a tabletop Eppendorf centrifuge, and then incubated at room temperature for 20 minutes. Using a Tomtec harvester, the contents of the assay plate are transferred to Filtermat A (PerkinElmer® No. 1450-421) which prior to use is pre-soaked in 0.5% PEI (Sigma P3143) for 3 hours and dried at room temperature overnight. Following transfer, the Filtermat is washed 5 times with cold wash buffer (20 mM HEPES pH 7.3, 100 mM NaCl). The Filtermat is dried using a microwave oven and placed in a sample bag (PerkinElmer® No. 1450-432) with a scintillator sheet (PerkinElmer® No. 1450-411). The scintillator sheet is melted to the Filtermat using a heat block set to 65° C., placed in a MicroBeta® cartridge and read using a MicroBeta® scintillation counter. Binding curves are generated with a four-parameter logistic equation using GraphPad Prism® 6 and the inhibition constant Ki is reported as pKi.

[2] = molecular target: T1, human GPR139 receptor; assay: Measurement of GPR139 Activation Via Calcium Signaling (FLIPR, T-REx-CHO cells); format: cell-based; settings: T-REx-CHO cells stably expressing human GPR139, 11-point dose response, 10 μM maximum concentration, read-out: GPR139 Potency (pEC50) (converted)
Outline: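 T-REx-CHO cells stably carrying human GPR139 under tetracycline control, induced with 2 μg/mL doxycycline for 17 h at 37 °C, loaded 40 min with Calcium 5 dye plus probenecid in HBSS/HEPES pH 7.4. Agonist added as 11-point series (10 μM top); fluorescence read 1 min; pEC50 from four-parameter fit.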

Row | SMILES | Ki [1] | EC50 [2]
1 | Cc1ccc([C@H](C)NC(=O)Cn2ncc3c(cnn3C)c2=O)cc1 [Example 33, (S)-2-(1-methyl-4-oxo-1,4-dihydro-5H-pyrazolo[3,4-d]pyridazin-5-yl)-N-(1-(p-tolyl)ethyl)acetamide] | 5.25 µM | 0.0661 µM
2 | C[C@H](NC(=O)Cn1ncc2c(cnn2C)c1=O)c1ccc(C(F)(F)F)cc1 [Example 34, (S)-2-(1-methyl-4-oxo-1,4-dihydro-5H-pyrazolo[3,4-d]pyridazin-5-yl)-N-(1-(4-(trifluoromethyl)phenyl)ethyl)acetamide] | 6.03 µM | 0.0708 µM
3 | Cc1ccc([C@H](C)NC(=O)Cn2ncc3c(cnn3C)c2=O)c(F)c1 [Example 35, (S)—N-(1-(2-fluoro-4-methylphenyl)ethyl)-2-(1-methyl-4-oxo-1,4-dihydro-5H-pyrazolo[3,4-d]pyridazin-5-yl)acetamide] | 1.02 µM | 0.0794 µM
4 | Cc1ccc([C@H](C)NC(=O)Cn2ncc3c(c(C)nn3C)c2=O)cc1 [Example 36, (S)-2-(1,3-dimethyl-4-oxo-1,4-dihydro-5H-pyrazolo[3,4-d]pyridazin-5-yl)-N-(1-(p-tolyl)ethyl)acetamide] | 0.251 µM | 0.0389 µM
5 | Cc1nn(C)c2cnn(CC(=O)N[C@@H](C)c3ccc(C(F)(F)F)cc3)c(=O)c12 [Example 37, (S)-2-(1,3-dimethyl-4-oxo-1,4-dihydro-5H-pyrazolo[3,4-d]pyridazin-5-yl)-N-(1-(4-(trifluoromethyl)phenyl)ethyl)acetamide] | 0.355 µM | 0.0263 µM
6 | Cc1ccc([C@H](C)NC(=O)Cn2nc(C)c3cnn(C)c3c2=O)cc1 [Example 39, (S)-2-(1,4-dimethyl-7-oxo-1,7-dihydro-6-pyrazolo[3,4-d]pyridazin-6-yl)-N-(1-(p-totyl)ethyl)acetamide] | 0.229 µM | 0.0363 µM
7 | Cc1ccc([C@H](C)NC(=O)Cn2nc(C)c3cnn(C)c3c2=O)c(F)c1 [Example 41, (S)-2-(1,4-dimethyl-7-oxo-1,7-dihydro-6H-pyrazolo[3,4-d]pyridazin-6-yl)-N-(1-(2-fluoro-4-methylphenyl)ethyl)acetamide] | 0.0741 µM | 0.0347 µM
8 | COc1ccc([C@H](C)NC(=O)Cn2ncc3c(c(C)nn3C)c2=O)cc1 [Example 48, (S)-2-(1,3-dimethyl-4-oxo-1,4-dihydro-5H-pyrazolo[3,4-d]pyridazin-5-yl)-N-(1-(4-methoxyphenyl)ethyl)acetamide] | 1.91 µM | 0.0331 µM
9 | Cc1ccc([C@H](C)NC(=O)Cn2ncc3c(c(C(C)C)nn3C)c2=O)c(F)c1 [Example 49, (S)—N-(1-(2-fluoro-4-methylphenyl)ethyl)-2-(3-isopropyl-1-methyl-4-oxo-1,4-dihydro-5H-pyrazolo[3,4-d]pyridazin-5-yl)acetamide] | 0.0229 µM | 0.049 µM
10 | Cc1ccc([C@H](C)NC(=O)Cn2ncc3c(c(C(C)C)nn3C)c2=O)cc1 [Example 51, (S)-2-(3-isopropyl-1-methyl-4-oxo-1,4-dihydro-5H-pyrazolo[3,4-d]pyridazin-5-yl)-N-(1-(p-tolyl)ethyl)acetamide] | 0.135 µM | 0.0324 µM
11 | CC(C)c1nn(C)c2cnn(CC(=O)N[C@@H](C)c3ccc(C(F)(F)F)cc3)c(=O)c12 [Example 52, (S)-2-(3-isopropyl-1-methyl-4-oxo-1,4-dihydro-5H-pyrazolo-[3,4-d]pyridazin-5-yl)-N-(1-(4-(trifluoromethyl)phenyl)ethyl)acetamide] | 0.204 µM | 0.0676 µM
12 | COc1ccc([C@H](C)NC(=O)Cn2ncc3c(c(C(C)C)nn3C)c2=O)cc1 [Example 53, (S)-2-(3-isopropyl-1-methyl-4-oxo-1,4-dihydro-5H-pyrazolo[3,4-d]pyridazin-5-yl)-N-(1-(4-methoxyphenyl)ethyl)acetamide] | 1.02 µM | 0.055 µM

More lines, now with the values ahead:

Row | Ki [1] | EC50 [2] | SMILES
13 | 0.0724 µM | 0.055 µM | Cc1ccc([C@H](C)NC(=O)Cn2ncc3c(c(C4CC4)nn3C)c2=O)cc1 [Example 38, (S)-2-(3-cyclopropyl-1-methyl-4-oxo-1,4-dihydro-5H-pyrazolo[3,4-d]pyridazin-5-yl)-N-(1-(p-tolyl)ethyl)acetamide]
14 | 0.251 µM | 0.0331 µM | Cc1nn(CC(=O)N[C@@H](C)c2ccc(C(F)(F)F)cc2)c(=O)c2c1cnn2C [Example 40, (S)-2-(1,4-dimethyl-7-oxo-1,7-dihydro-6H-pyrazolo[3,4-d]pyridazin-6-yl)-N-(1-(4-(trifluoromethyl)phenyl)ethyl)acetamide]
15 | 0.0195 µM | ≥ 10 µM | Cc1ccc([C@H](C)NC(=O)Cn2nc(C3CC3)c3cnn(-c4ccccc4)c3c2=O)c(F)c1 [Example 42, (S)-2-(4-cyclopropyl-7-oxo-1-phenyl-1,7-dihydro-6H-pyrazolo[3,4-d]pyridazin-6-yl)-N-(1-(2-fluoro-4-methylphenyl)ethyl)acetamide]
16 | 0.0891 µM | 0.708 µM | Cc1ccc([C@H](C)NC(=O)Cn2nc(C3CC3)c3cnn(-c4ccccc4)c3c2=O)cc1 [Example 43, (S)-2-(4-cyclopropyl-7-oxo-1-phenyl-1,7-dihydro-6H-pyrazolo[3,4-d]pyridazin-6-yl)-N-(1-(p-tolyl)ethyl)acetamide]
17 | 0.105 µM | 3.63 µM | C[C@H](NC(=O)Cn1nc(C2CC2)c2cnn(-c3ccccc3)c2c1=O)c1ccc(C(F)(F)F)cc1 [Example 44, (S)-2-(4-cyclopropyl-7-oxo-1-phenyl-1,7-dihydro-6H-pyrazolo[3,4-d]pyridazin-6-yl)-N-(1-(4-(trifluoromethyl)phenyl)ethyl)acetamide]
18 | 0.224 µM | ≥ 10 µM | C[C@H](NC(=O)Cn1nc(C2CC2)c2cnn(-c3ccccc3)c2c1=O)c1ccc(OC(F)(F)F)cc1 [Example 45, (S)-2-(4-cyclopropyl-7-oxo-1-phenyl-1,7-dihydro-6H-pyrazolo[3,4-d]pyridazin-6-yl)-N-(1-(4-(trifluoromethoxy)phenyl)ethyl)acetamide]
19 | 0.162 µM | 0.0372 µM | Cc1nn(C)c2cnn(CC(=O)N[C@@H](C)c3ccc(OC(F)(F)F)cc3)c(=O)c12 [Example 47, (S)-2-(1,3-dimethyl-4-oxo-1,4-dihydro-5H-pyrazolo[3,4-d]pyridazin-5-yl)-N-(1-(4-(trifluoromethoxy)phenyl)ethyl)acetamide]
20 | 0.126 µM | 0.166 µM | CC(C)c1nn(C)c2cnn(CC(=O)N[C@@H](C)c3ccc(OC(F)(F)F)cc3)c(=O)c12 [Example 50, (S)-2-(3-isopropyl-1-methyl-4-oxo-1,4-dihydro-5H-pyrazolo[3,4-d]pyridazin-5-yl)-N-(1-(4-(trifluoromethoxy)phenyl)ethyl)acetamide]
